Assays:
[1] = biological target: Hydrilla PDS Arg^304 → Threonine (Hydrilla verticillata, UniProt Q66PY0, R304T); experiment: Cross resistance to bleaching herbicides, in vitro PDS inhibition, non-His-tagged (Table 2); assay type: biochemical; settings: Threonine at 304; construct in frame with LacZalpha-ccdB, non-His-tagged; read-out: I50
Protocol: (§1) The expression constructs in Table 2 were derived from an original clone of the susceptible PDS gene from Hydrilla and then the Arg^304 was mutated to the listed amino acid. Expression was under the control of the lac promoter but in frame with the initiation codon of the LacZalpha-ccdB gene in the pCR4-TOPO vector (Invitrogen Inc., CA, Cat. #K4575-01).
(§2) All mutagenesis was performed, unless stated otherwise, using the TOPO-vector containing the wildtype (H4) PDS-sequence, which was extracted from an overnight culture with the Qiagen Plasmid Prep Kit as described above. The amount of the extracted plasmid was diluted to 10 ng/μl and used as template in a mutagenesis-procedure using the QuikChange Site-directed Mutagenesis Kit (Stratagene, Calif., #200518). The design of the mutagenesis-primers was conducted according to the manufacturers protocol to enable the specific change of Arg^304-codon to code for the desired amino acid. Primers (purchased from MWG-Biotech) and their introduced amino acid change are listed below with the changed codon underlined:
(§3) The reactions were performed according to the manufacturers protocol. Reactions were set up in MicroAmp-tubes on ice with 38 μl ddH2O, 5 μl 10× reaction buffer, 2 μl plasmid (10 ng/μl), 1.25 μl forward-mutagenesis primer (100 ng/μl), 1.25 μl of reverse mutagenesis primer (100 ng/μl), 1 μl dNTP-mix and 1 μl PfuTurboDNA polymerase (2.5 U/μl). The reactions were placed in a PE 9700 thermal cycler and heated to 95° C. for 30 sec followed by 12 rounds at 95° C. for 30 sec, 55° C. for 1 min and 68° C. for 12 min. The PCR was followed by a DpnI-digestion and transformation in XL1-Blue supercompetent cells as described in the manual. 4-6 resulting colonies were grown overnight in LB-medium with kanamycin and plasmid DNA was isolated as described above. The plasmid was used as template for sequencing with M13 and internal PDS-primers as described above on a LiCOR-system. Sequences were assembled and analyzed using Seqman. Introduced mutations were identified and plasmids carrying the desired mutation(s) were transferred into competent TOP10-cells, using the transformation protocol from the TOPO TA Cloning Kit. Resulting colonies were grown overnight in Wu-broth with kanamycin, aliquoted and stored at −80° C. until further use. 1 ml of Wu-cultures was used to start 1-L LB-cultures with kanamycin as described before, to express active PDS-enzyme for testing as described.
(§4) Phytoene desaturase activity and its inhibition by herbicides was determined using an in vitro system using components derived from the in vivo production of phytoene and phytoene desaturase proteins. All mutations described in Examples 3 and 4 were tested. […] The clones were used for the heterologous expression of Hydrilla-PDS-enzyme. In particular, bacterial cultures were grown from single colonies overnight in Wu-broth (6.27 g/L K2HPO4, 1.8 g/L KH2PO4, 0.5 g/L Na-citrate, 0.9 g/L (NH4)2SO4, 10 g/L tryptone, 5 g/L yeast extract, 10 g/L NaCl, 44 ml/L glycerol, 0.1 mM MgSO4, pH 7.2) with kanamycin. 1-mL was aliquoted in centrifuge tube and stored at −80° C. For expression, 1 L LB-medium with kanamycin was inoculated with 1-mL Wu-culture and grown for 24 h at 37° C. to stationary phase with shaking at 200 rpm. The cells were collected by centrifugation at 2000×g. All of the following steps were done at 4° C. unless otherwise noted. Active soluble PDS enzyme was extracted by lysing the transformed E. coli cells using a French Press at 20,000 psi in assay buffer consisting of 100 mM Tris-HCl, pH 7.2, 10 mM magnesium-chloride, 0.1 mM NADP, 0.1 mM FAD, 10 mM cysteine, 5 mM DTT, 1 mM aminocaproic acid, and 1 μg/ml leupeptin. The soluble fraction containing PDS activity was obtained by centrifugation for 10 min at 1200×g. After 24 h they were centrifuged down and used in PDS enzyme activity assays as described below.

[2] = tested on: Hydrilla PDS Arg^304 → Threonine; experiment: as above; assay type: biochemical, Hydrilla verticillata; settings: Threonine at 304 relative to Arginine; Table 2
Protocol: as §1, §2, §3, §4

Hydrilla PDS Arg^304 → Threonine (Hydrilla verticillata, UniProt Q66PY0, R304T), sequence (Q66PY0 1-580 R304T): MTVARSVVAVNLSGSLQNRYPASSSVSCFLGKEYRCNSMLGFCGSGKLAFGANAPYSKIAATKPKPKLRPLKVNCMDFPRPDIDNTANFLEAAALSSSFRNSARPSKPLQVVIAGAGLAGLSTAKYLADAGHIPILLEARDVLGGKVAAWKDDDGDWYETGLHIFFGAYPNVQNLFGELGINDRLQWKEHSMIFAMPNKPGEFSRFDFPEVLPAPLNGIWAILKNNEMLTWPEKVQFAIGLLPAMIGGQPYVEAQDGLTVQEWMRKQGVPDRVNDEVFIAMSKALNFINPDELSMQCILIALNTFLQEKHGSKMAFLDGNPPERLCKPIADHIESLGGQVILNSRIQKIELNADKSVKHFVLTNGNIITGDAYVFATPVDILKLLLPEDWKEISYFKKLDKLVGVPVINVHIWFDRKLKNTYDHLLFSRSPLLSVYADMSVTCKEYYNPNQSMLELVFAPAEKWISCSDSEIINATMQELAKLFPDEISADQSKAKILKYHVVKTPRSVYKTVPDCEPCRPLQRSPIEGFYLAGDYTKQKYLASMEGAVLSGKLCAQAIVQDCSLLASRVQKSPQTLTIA

Q: How did the IC50 [1] turn out when `O=C(Nc1ccc(F)cc1F)c1cccnc1Oc1cccc(C(F)(F)F)c1` [Diflufenican] was run?
A: 1 µM

Q: What about the R/S [2] of the same compound?
A: 0.2

Q: Which results are given for `CNC1=C(c2cccc(C(F)(F)F)c2)C(=O)C(c2ccccc2)O1` (stereo not shown) [Flurtamone]?
A: IC50 [1]: 8.1 µM; R/S [2]: 2.9

Q: Which results are given for `CNc1cnn(-c2cccc(C(F)(F)F)c2)c(=O)c1Cl` [Norflurazon]?
A: IC50 [1]: 161 µM; R/S [2]: 52.0

Q: `O=C1C(Cl)C(CCl)CN1c1cccc(C(F)(F)F)c1` (stereo not shown) [Fluorochloridone] was tested. Which IC50 [1] did it give?
A: 52 µM

Q: What about the R/S [2] of the same compound?
A: 4.3

Q: How did the IC50 [1] turn out when `CCC(Oc1ccc(F)c(C(F)(F)F)c1)C(=O)NCc1ccccc1` (stereo not shown) [Beflubutamid] was run?
A: 1.2 µM

Q: What about the R/S [2] of the same compound?
A: 0.3

Q: How did the IC50 [1] turn out when `O=C(Nc1ccc(F)cc1)c1cccc(Oc2cccc(C(F)(F)F)c2)n1` [Piconilafen, Picolinafen] was run?
A: 2.7 µM

Q: What about the R/S [2] of the same compound?
A: 0.5

Q: Which R/S [2] does the source give for Fluridone here?
A: 10.0

Source: patent US20110098180A1, “Herbicide-Resistant Plants, And Polynucleotides And Methods For Providing Same” (United States Department of Agriculture, priority 2002, published 2011)
